Molecules are shown by their SMILES.

As usually defined, the Kd is the constant that tells how readily two partners part at equilibrium.

The assay concerns the target T1, CHIP (Homo sapiens, UniProt Q9UNE7).
T1 construct: gene STUB1; commercial human recombinant CHIP (OriGene)
T1 sequence (Q9UNE7 1-303): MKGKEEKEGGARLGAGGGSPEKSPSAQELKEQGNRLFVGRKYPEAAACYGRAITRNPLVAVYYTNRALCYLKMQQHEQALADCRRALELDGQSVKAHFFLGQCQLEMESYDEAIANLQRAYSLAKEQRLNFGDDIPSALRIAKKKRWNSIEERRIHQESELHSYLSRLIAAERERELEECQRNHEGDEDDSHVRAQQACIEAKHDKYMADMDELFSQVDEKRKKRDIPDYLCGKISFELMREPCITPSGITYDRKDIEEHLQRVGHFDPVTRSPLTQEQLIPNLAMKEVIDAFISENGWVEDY
The assay can be described thus: microscale thermophoresis, Monolith NT.[…], single-site fit. Format: binding. A general note: Microscale thermophoresis detects binding through changes in fluorescence in a small temperature gradient.

In turn, `C=CC(=O)Nc1ccc(CN2C(=O)N(c3cc(OC)cc(OC)c3)Cc3cnc(Nc4ccc(N5CCN(C)CC5)cc4)nc32)cc1` [FIIN-2] gave a Kd of 1830 nM.

Source of the values: paper PMC12313710, “Targeting the BAG2/CHIP axis promotes gastric cancer apoptosis by blocking apoptosome assembly” (Frontiers in Immunology, 2025).
